The test system of the test is non-transgenic maize seed from inbred N46. As to the kind of experiment: Priming matrix additive: Dormex + DMSO. Format: in vivo. The conditions noted are these: 1% DMSO without Dormex, 3 hours. The method, then:
Non-transgenic maize seed from inbred N46 were primed with 0, 5, 10, 15, or 30% Dormex® solutions with and without 1% DMSO. For each treatment, 96 seeds were soaked in 50 ml of Dormex® solution in a petri dish for 3 hours at room temperature. After priming the seeds were transferred into pollination bags, and dried overnight in front of a fan. Dried primed seed were then planted into flats to germinate.

Take `C[S+](C)[O-]` [DMSO]: the Germination % is reported as 93%.

The values above are taken from patent US20100154083A1, “Methods and Compositions for the Selection of A Transgenic Plant” (Pioneer Hi-Bred International, Inc., priority 2006, published 2010).
